Experimental data: PubChem BioAssay AID1845206 (Molecular Pharmacology Branch, DTP, NCI, 2023)
pIC50: −log10 of the molar value. Active and inactive are the calls of the source. The calls were made as follows: active = viability on the fitted dose curve at most 10% of control; inactive = the rest.

Test system: NCI-H1618 multicellular tumor spheroid viability
Assay: Anticancer human tumor NCI-H1618 cell line growth inhibition;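 also: spheroids exposed to agents for 7 days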
Conditions: for pIC50: curve of first compound; for viability, T/C: stronger effect = lower value
How it was run: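 Single agents and combinations were tested on spheroids built from tumor cells plus HUVEC and hMSC, at half-log dilutions starting at or near clinical Cmax, else 10 microM; final DMSO 0.25% (v/v).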

## CC(C)n1c(=O)n(C)c2cnc3cc(F)c(-c4ccc(OCCCN5CCCCC5)nc4)cc3c21 + Cn1nnc2c(C(N)=O)ncn2c1=O
Second compound 1 µM
  pIC50: < 5.00
Second compound 3.16 µM
  pIC50: > 7.50
Second compound 10 µM
  pIC50: > 7.50
Second compound 31.6 µM
  pIC50: > 7.50
Second compound 100 µM
  pIC50: 5.35
Second compound 1 µM, first compound 0.0316 µM
  viability, T/C: 82.9%
Second compound 1 µM, first compound 0.1 µM
  outcome: inactive
Second compound 1 µM, first compound 0.316 µM
  outcome: inactive
Second compound 1 µM, first compound 1 µM
  viability, T/C: 86.7%
Second compound 1 µM, first compound 3.16 µM
  viability, T/C: 78.4%
Second compound 1 µM, first compound 10 µM
  viability, T/C: 69%
Second compound 3.16 µM, first compound 0.0316 µM
  viability, T/C: 20.5%
Second compound 3.16 µM, first compound 0.1 µM
  viability, T/C: 16.2%
Second compound 3.16 µM, first compound 0.316 µM
  viability, T/C: 25.4%
Second compound 3.16 µM, first compound 1 µM
  viability, T/C: 22.2%
Second compound 3.16 µM, first compound 3.16 µM
  viability, T/C: 8.21%
Second compound 3.16 µM, first compound 10 µM
  viability, T/C: 14.4%
Second compound 10 µM, first compound 0.0316 µM
  viability, T/C: 12.6%
Second compound 10 µM, first compound 0.1 µM
  viability, T/C: 2.97%
Second compound 10 µM, first compound 0.316 µM
  viability, T/C: 8.79%
Second compound 10 µM, first compound 1 µM
  viability, T/C: 11.4%
Second compound 10 µM, first compound 3.16 µM
  viability, T/C: 19.9%
Second compound 10 µM, first compound 10 µM
  viability, T/C: 5.34%
Second compound 31.6 µM, first compound 0.0316 µM
  viability, T/C: 9.31%
Second compound 31.6 µM, first compound 0.1 µM
  viability, T/C: 17.1%
Second compound 31.6 µM, first compound 0.316 µM
  viability, T/C: 12.9%
Second compound 31.6 µM, first compound 1 µM
  viability, T/C: 11.6%
Second compound 31.6 µM, first compound 3.16 µM
  viability, T/C: 23%
Second compound 31.6 µM, first compound 10 µM
  viability, T/C: 6.81%
Second compound 100 µM, first compound 0.0316 µM
  viability, T/C: 57.3%
Second compound 100 µM, first compound 0.1 µM
  viability, T/C: 68.8%
Second compound 100 µM, first compound 0.316 µM
  viability, T/C: 52%
Second compound 100 µM, first compound 1 µM
  viability, T/C: 67.2%
Second compound 100 µM, first compound 3.16 µM
  viability, T/C: 57.6%
Second compound 100 µM, first compound 10 µM
  viability, T/C: 29.9%
